What was measured:
Format in all cases: in vivo
[1] = tested on: Larvae of Spodoptera litura; assay: Larvae of Spodoptera litura, method using artificial feeds; conditions: artificial feed, after 7 days
How it was run: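 Compound formulated in dimethylformamide with polyoxyethylene alkyl phenyl ether emulsifier, water-diluted and poured onto artificial diet. Five 3rd-instar Spodoptera litura larvae per cup, held at 25° C and 50-60% humidity. Mortality after 7 days expressed as pesticidal ratio.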

Thrips palmi = Thrips palmi spray test (THRIPL); conditions: active compound concentration 20 ppm; after 6 days
Protocol: Unless not mentioned otherwise, the test solutions were prepared as follows:
Solvent: 3 parts by weight Dimethylformamide
Emulsifier: 1 part by weight Polyoxyethylene alkyl phenyl ether
In order to make an appropriate formulation of an active compound, 1 part by weight of the active compound is mixed with the above mentioned amount of solvent and emulsifier and the mixture is diluted with water to a prescribed concentration. Ammonium salt or ammonium salt and penetration enhancer in a dosage of 1000 ppm are added to the desired concentration if necessary.
The compound solutions are sprayed to a cucumber seedling (Cucumis sativus). After drying, the treated plant is placed in a plastic stand. About 100 thrips-eggs (Thrips palmi) on a piece of filter paper are attached to the plant and covered with a cage to keep 100% humidity. The plant is kept in a room at 23° C. After 6 days activity in % is evaluated by feeding damage degree. An insecticidal activity of 100 means that there was no feeding damage, whereas an insecticidal activity of 0% means that there is no difference to the untreated control.

[2] = tested on: Cucurbit Leaf Beetle (Aulacophora femoralis); assay: Cucurbit leaf beetle (Aulacophora femoralis) cucumber leaf dip test; conditions: after 7 days
How it was run: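 Cucumber leaves dipped in compound formulated with DMF and polyoxyethylene alkyl phenyl ether, diluted in water, with ammonium salt or ammonium salt plus penetration enhancer at 1000 ppm added if necessary; dried leaves placed on sterilized soil with five second-instar larvae. Kept at 25° C; larval mortality counted after 7 days.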

[3] = tested on: Two-Spotted Spider Mite (Tetranychus urticae); assay: Two-spotted spider mite (Tetranychus urticae) spray test on kidney bean; conditions: after 7 days
How it was run: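 Kidney bean plants at the two-leaf stage carried 50-100 adult mites and were sprayed one day later with compound in DMF/polyoxyethylene alkyl phenyl ether diluted in water. Ammonium salt and penetration enhancer at 1000 ppm were added if needed. Acaricidal activity (% mites killed) was scored after 7 days in a greenhouse.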

[4] = active compound concentration 4 ppm
[5] = active compound concentration 20 ppm

SMILES	insecticidal activity (pesticidal ratio) [1, 4] [%]	insecticidal activity [2, 5] [%]	insecticidal activity (pesticidal ratio) [1, 5] [%]	acaricidal activity [3, 5] [%]	other results
CC(=O)NCc1cc(F)c(N2CCC(c3cc(Cl)c(Cl)c(Cl)c3)(C(F)(F)F)C2O)nc1Cl (centres unmarked) [A3-366]	100				insecticidal activity (by feeding damage degree) (Thrips palmi): 98%
CCC(=O)NCc1ccc(N2CCC(c3ccc(F)c(C(F)(F)F)c3)(C(F)(F)F)C2O)nc1C(F)(F)F (mixture of isomers) [A3-233]	100	100	100		insecticidal activity [2, 4]: 100%; insecticidal activity (by feeding damage degree) (Thrips palmi): 90%
CCC(=O)NCc1ccc(N2CCC(c3cc(Cl)cc(Cl)c3)(C(F)(F)F)C2O)cc1F (mixture of isomers) [A1-96]		100			insecticidal activity (by feeding damage degree) (Thrips palmi): 90%
O=C(NCc1ccc(N2CCC(c3cc(Cl)cc(C(F)(F)F)c3)(C(F)(F)F)C2O)cc1C(F)(F)F)C1CC1 (centres unmarked) [A1-341]		100	100	100	
CC(=O)NCc1ccc(N2CCC(c3cc(Cl)cc(Cl)c3F)(C(F)(F)F)C2O)cc1C(F)(F)F (centres unmarked) [A1-405]	100				acaricidal activity [3, 4]: 100%; insecticidal activity [2, 4]: 100%
O=C(CC(F)(F)F)NCc1ccc(N2CCC(c3cc(C(F)(F)F)cc(C(F)(F)F)c3)(C(F)(F)F)C2O)nc1Br (centres unmarked) [A3-161, N-[(6-{3-[3,5-bis(trifluoromethyl)phenyl]-2-hydroxy-3-(trifluoromethyl)pyrrolidin-1-yl}-2-bromopyridin-3-yl)methyl]-3,3,3-trifluoropropanamide]					pest or weed control at 20 ppm ([3]; Tetranychus urticae, 168 h, active compound concentration 20 ppm, read-out: acaricidal activity): 100%; pest or weed control at 20 ppm ([2]; Aulacophora, foliar, 168 h, active compound concentration 20 ppm, read-out: insecticidal activity): 100%; pest or weed control at 20 ppm ([1]; Spodoptera litura, 168 h, active compound concentration 20 ppm, read-out: insecticidal activity (pesticidal ratio)): 100%
O=C(NCc1ccc(N2CCC(c3cccc(C(F)(F)F)c3)(C(F)(F)F)C2O)cc1C(F)(F)F)C1CC1 (racemic) [A1-297]		100	100	100	
Cc1cc(N2CCC(c3cc(C(F)(F)F)cc(C(F)(F)F)c3)(C(F)(F)F)C2O)ccc1CNC(=O)C1CC1 (mixture of isomers) [A1-187]		100	100	100	
COCCC(=O)NCc1ccc(N2CCC(c3cc(C(F)(F)F)cc(C(F)(F)F)c3)(C(F)(F)F)C2O)cc1Cl (centres unmarked) [A1-30]		100	100	100	
O=C(NCc1ccc(N2CCC(c3ccc(F)c(C(F)(F)F)c3)(C(F)(F)F)C2O)cc1C(F)(F)F)C1CC1 (racemic) [A1-308]		100	100	100	
CCC(=O)NCc1ccc(N2CCC(c3cc(Cl)cc(Cl)c3F)(C(F)(F)F)C2O)cc1C(F)(F)F (centres unmarked) [A1-406]	100				acaricidal activity [3, 4]: 100%; insecticidal activity [2, 4]: 100%
O=C(CC(F)(F)F)NCc1ccc(N2CCC(c3cc(Cl)c(Cl)c(Cl)c3)(C(F)(F)F)C2O)nc1Br (centres unmarked) [A3-117]		100	100	100	
CSCC(=O)NCc1ccc(N2CCC(c3cc(Cl)cc(Cl)c3)(C(F)(F)F)C2O)cc1C(F)(F)F (centres unmarked) [A1-42]		100	100	100	
Cc1nc(N2CCC(c3cc(C(F)(F)F)cc(C(F)(F)F)c3)(C(F)(F)F)C2O)ccc1CNC(=O)CC(F)(F)F (centres unmarked) [A3-128]		100	100	100	
CCC(=O)NCc1cc(F)c(N2CCC(c3cc(Cl)c(Cl)c(Cl)c3)(C(F)(F)F)C2O)nc1Cl (centres unmarked) [A3-367]	100				insecticidal activity (by feeding damage degree) (Thrips palmi): 90%
CS(=O)(=O)CC(=O)NCc1ccc(N2CCC(c3cc(Cl)c(Cl)c(Cl)c3)(C(F)(F)F)C2O)cc1C(F)(F)F (mixture of isomers) [A1-55]		100	100	100	

From patent US9375000B2, “Pesticidal arylpyrrolidines” (Bayer Intellectual Property GmbH, priority 2011, dated 2016)
